{"source": "paper PMC4979471", "about": "(Cell Death Discovery, 2015)", "experiment_in_all_cases": "Kinase selectivity, P33-radiolabeled assay", "assay_type_in_all_cases": "biochemical", "key": {"ALK4/ACVR1B": {"target": "T1, ALK4/ACVR1B (Homo sapiens, UniProt P36896)", "T1 construct": "purchased Reaction Biology Corp", "T1 sequence (P36896 24-505)": "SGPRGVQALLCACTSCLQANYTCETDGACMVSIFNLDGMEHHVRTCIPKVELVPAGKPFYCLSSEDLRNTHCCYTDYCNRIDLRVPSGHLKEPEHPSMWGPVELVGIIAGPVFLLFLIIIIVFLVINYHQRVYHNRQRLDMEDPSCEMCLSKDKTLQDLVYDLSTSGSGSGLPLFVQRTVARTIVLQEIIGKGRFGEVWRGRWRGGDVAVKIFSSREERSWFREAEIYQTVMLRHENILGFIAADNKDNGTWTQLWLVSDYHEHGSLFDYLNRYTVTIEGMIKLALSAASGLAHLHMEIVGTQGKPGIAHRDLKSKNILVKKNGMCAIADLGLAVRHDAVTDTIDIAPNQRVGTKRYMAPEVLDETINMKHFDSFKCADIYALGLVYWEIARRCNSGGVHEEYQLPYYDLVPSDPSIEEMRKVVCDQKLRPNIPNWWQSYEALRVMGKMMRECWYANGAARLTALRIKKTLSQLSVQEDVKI", "settings": "10 μM ATP", "in_short": "(§1)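 Reactions contained 10 μM ATP and 10 μM test compound, each run in duplicate. Kinase activity is expressed as a percentage of DMSO-treated controls.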"}, "ARAF": {"target": "T2, ARAF (Homo sapiens, UniProt P10398)", "T2 construct": "purchased Reaction Biology Corp", "T2 sequence (P10398 1-606)": "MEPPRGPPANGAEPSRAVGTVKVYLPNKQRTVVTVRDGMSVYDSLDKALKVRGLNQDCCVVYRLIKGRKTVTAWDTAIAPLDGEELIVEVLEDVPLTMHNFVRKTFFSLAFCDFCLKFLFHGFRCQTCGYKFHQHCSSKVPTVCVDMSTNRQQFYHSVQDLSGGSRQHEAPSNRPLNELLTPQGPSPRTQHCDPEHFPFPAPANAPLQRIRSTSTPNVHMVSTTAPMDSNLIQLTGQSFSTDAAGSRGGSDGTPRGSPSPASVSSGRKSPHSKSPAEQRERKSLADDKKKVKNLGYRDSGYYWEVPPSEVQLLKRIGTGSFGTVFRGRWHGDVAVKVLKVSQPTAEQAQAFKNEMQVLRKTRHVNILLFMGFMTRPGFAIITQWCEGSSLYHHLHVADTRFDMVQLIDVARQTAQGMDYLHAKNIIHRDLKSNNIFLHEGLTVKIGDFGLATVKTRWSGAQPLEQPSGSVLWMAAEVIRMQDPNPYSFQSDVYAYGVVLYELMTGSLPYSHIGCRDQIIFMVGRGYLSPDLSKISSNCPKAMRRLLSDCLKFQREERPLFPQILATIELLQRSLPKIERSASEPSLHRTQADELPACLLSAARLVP", "settings": "10 μM ATP", "in_short": "as §1"}, "DYRK1B": {"target": "T3, DYRK1B (Homo sapiens, UniProt Q9Y463)", "T3 construct": "purchased Reaction Biology Corp", "T3 sequence (Q9Y463 whole entry)": "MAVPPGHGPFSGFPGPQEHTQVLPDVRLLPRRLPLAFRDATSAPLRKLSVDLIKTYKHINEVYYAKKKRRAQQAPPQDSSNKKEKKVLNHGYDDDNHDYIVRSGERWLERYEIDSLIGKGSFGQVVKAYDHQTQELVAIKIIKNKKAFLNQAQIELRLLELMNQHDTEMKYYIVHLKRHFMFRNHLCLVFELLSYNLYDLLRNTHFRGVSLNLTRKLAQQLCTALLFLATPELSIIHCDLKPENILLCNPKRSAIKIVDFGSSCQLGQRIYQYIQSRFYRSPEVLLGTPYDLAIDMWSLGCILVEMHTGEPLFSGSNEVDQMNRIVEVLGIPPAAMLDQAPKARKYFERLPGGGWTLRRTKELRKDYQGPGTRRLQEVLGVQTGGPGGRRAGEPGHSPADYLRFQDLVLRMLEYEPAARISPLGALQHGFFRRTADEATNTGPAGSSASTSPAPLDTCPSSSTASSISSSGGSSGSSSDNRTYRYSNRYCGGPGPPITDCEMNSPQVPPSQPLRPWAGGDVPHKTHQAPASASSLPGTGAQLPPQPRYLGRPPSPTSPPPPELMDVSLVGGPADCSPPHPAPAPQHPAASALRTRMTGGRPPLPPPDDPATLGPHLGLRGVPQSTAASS", "settings": "10 μM ATP", "in_short": "as §1"}, "HIPK1": {"target": "T4, HIPK1 (Homo sapiens, UniProt Q86Z02)", "T4 construct": "purchased Reaction Biology Corp", "T4 sequence (Q86Z02 whole entry)": "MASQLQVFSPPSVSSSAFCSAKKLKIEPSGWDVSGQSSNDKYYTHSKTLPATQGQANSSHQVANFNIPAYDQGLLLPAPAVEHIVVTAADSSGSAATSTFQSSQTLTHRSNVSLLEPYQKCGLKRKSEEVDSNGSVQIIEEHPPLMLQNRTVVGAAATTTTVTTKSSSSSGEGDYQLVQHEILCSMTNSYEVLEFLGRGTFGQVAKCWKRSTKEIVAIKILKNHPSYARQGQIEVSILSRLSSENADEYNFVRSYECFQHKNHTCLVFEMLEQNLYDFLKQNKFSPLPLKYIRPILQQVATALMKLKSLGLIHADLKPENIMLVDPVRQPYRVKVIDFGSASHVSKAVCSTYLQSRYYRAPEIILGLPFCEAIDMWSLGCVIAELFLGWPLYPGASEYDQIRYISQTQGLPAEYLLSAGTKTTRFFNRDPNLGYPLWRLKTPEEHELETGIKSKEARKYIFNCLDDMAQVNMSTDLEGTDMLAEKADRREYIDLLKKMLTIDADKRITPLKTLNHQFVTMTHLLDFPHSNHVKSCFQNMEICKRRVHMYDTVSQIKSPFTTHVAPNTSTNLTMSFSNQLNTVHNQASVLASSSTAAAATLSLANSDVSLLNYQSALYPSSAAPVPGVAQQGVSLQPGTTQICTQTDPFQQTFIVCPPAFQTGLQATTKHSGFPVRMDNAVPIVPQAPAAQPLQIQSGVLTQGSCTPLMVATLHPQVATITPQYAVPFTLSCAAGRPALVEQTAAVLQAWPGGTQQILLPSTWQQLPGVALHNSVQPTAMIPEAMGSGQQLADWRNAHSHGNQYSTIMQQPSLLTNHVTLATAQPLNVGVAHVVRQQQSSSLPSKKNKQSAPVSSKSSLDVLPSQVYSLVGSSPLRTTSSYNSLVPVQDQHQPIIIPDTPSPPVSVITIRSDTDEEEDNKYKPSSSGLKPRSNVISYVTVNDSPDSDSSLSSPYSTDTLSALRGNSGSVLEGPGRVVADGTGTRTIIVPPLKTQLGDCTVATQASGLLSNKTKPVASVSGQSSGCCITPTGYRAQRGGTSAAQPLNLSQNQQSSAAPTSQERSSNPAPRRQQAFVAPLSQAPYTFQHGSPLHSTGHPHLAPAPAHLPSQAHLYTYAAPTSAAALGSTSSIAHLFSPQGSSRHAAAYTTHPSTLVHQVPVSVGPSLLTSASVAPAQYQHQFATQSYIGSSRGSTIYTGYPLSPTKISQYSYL", "settings": "10 μM ATP", "in_short": "as §1"}, "P38g": {"target": "T5, P38g (Homo sapiens, UniProt P53778)", "T5 construct": "purchased Reaction Biology Corp", "T5 sequence (P53778 1-367)": "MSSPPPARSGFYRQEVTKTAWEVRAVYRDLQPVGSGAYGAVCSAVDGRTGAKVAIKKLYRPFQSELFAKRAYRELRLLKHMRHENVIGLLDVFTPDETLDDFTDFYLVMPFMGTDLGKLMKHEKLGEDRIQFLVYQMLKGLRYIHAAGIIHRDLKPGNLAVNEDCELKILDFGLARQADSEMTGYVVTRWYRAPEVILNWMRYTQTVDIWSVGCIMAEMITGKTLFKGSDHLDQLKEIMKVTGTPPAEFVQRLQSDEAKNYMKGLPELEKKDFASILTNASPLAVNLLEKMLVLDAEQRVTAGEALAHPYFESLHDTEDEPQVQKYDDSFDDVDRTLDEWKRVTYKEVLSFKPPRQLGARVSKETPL", "settings": "10 μM ATP", "in_short": "as §1"}, "PKCmu/PRKD1": {"target": "T6, PKCmu/PRKD1 (Homo sapiens, UniProt Q15139)", "T6 construct": "purchased Reaction Biology Corp", "T6 sequence (Q15139 1-912)": "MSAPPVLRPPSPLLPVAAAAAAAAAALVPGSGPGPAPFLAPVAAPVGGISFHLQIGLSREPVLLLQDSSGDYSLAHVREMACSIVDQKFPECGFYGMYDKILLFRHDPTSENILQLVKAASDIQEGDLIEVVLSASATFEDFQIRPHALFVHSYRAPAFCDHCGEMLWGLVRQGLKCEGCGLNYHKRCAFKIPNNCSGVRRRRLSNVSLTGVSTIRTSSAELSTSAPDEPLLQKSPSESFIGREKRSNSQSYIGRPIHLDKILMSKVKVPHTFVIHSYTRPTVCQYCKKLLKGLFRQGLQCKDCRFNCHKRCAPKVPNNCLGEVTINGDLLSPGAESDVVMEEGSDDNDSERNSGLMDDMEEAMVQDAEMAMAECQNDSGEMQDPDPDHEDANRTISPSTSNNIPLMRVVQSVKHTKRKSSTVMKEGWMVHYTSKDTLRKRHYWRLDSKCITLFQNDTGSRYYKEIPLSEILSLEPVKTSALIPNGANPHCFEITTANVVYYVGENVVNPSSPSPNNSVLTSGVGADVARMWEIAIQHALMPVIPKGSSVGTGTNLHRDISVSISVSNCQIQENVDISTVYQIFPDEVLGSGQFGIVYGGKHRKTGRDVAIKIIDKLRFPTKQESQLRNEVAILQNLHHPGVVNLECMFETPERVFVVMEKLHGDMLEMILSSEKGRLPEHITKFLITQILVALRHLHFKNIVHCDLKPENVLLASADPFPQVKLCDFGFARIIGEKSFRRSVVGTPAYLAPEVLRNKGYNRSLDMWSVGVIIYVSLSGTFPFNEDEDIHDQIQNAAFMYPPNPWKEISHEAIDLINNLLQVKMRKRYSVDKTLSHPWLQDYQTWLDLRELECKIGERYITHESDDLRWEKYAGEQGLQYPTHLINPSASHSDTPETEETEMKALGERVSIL", "in_short": "as §1"}, "SSTK/TSSK6": {"target": "T7, SSTK/TSSK6 (Homo sapiens, UniProt Q9BXA6)", "T7 construct": "purchased Reaction Biology Corp", "T7 sequence (Q9BXA6 whole entry)": "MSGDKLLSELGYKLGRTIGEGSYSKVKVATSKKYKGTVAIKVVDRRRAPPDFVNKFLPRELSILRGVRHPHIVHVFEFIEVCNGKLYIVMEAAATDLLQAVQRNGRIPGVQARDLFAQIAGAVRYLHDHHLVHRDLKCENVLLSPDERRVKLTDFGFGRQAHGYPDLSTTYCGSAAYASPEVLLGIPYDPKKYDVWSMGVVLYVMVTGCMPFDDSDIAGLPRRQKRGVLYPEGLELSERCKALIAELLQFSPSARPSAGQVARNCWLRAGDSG", "settings": "10 μM ATP", "in_short": "as §1"}, "[1]": {"settings": "read-out: % Enzyme Activity (relative to DMSO controls) AVG"}, "[2]": {"settings": "read-out: % Enzyme Activity (relative to DMSO controls) Data 1"}, "[3]": {"settings": "read-out: % Enzyme Activity (relative to DMSO controls) Data 2"}}, "note": "Read-outs that look alike come from different tables or passages of the source.", "data": [{"smiles": "CC(C)(C)C(=O)N1N=CC[C@H]1c1ccccc1", "note": "[GSK′963]", "values": [{"measurement": "remaining activity at 10 µM", "setting": "ALK4/ACVR1B; [1]", "value": 103, "unit": "%"}, {"measurement": "remaining activity at 10 µM", "setting": "ALK4/ACVR1B; [2]", "value": 104, "unit": "%"}, {"measurement": "remaining activity at 10 µM", "setting": "ALK4/ACVR1B; [3]", "value": 102, "unit": "%"}, {"measurement": "remaining activity at 10 µM", "setting": "ARAF; [1]", "value": 93.7, "unit": "%"}, {"measurement": "remaining activity at 10 µM", "setting": "ARAF; [2]", "value": 94.6, "unit": "%"}, {"measurement": "remaining activity at 10 µM", "setting": "ARAF; [3]", "value": 92.9, "unit": "%"}, {"measurement": "remaining activity at 10 µM", "setting": "DYRK1B; [1]", "value": 102, "unit": "%"}, {"measurement": "remaining activity at 10 µM", "setting": "DYRK1B; [2]", "value": 103, "unit": "%"}, {"measurement": "remaining activity at 10 µM", "setting": "DYRK1B; [3]", "value": 101, "unit": "%"}, {"measurement": "remaining activity at 10 µM", "setting": "HIPK1; [1]", "value": 94.3, "unit": "%"}, {"measurement": "remaining activity at 10 µM", "setting": "HIPK1; [2]", "value": 95.2, "unit": "%"}, {"measurement": "remaining activity at 10 µM", "setting": "HIPK1; [3]", "value": 93.3, "unit": "%"}, {"measurement": "remaining activity at 10 µM", "setting": "P38g; [1]", "value": 101, "unit": "%"}, {"measurement": "remaining activity at 10 µM", "setting": "P38g; [2]", "value": 103, "unit": "%"}, {"measurement": "remaining activity at 10 µM", "setting": "P38g; [3]", "value": 98.7, "unit": "%"}, {"measurement": "remaining activity at 10 µM", "setting": "PKCmu/PRKD1; 10 uM, 10 μM ATP, read-out: % Enzyme Activity (relative to DMSO controls) Data 1", "value": 99.9, "unit": "%"}, {"measurement": "remaining activity at 10 µM", "setting": "PKCmu/PRKD1; 10 uM, 10 μM ATP, read-out: % Enzyme Activity (relative to DMSO controls) Data 2", "value": 103, "unit": "%"}, {"measurement": "remaining activity at 10 µM", "setting": "PKCmu/PRKD1; [1]", "value": 101, "unit": "%"}, {"measurement": "remaining activity at 10 µM", "setting": "SSTK/TSSK6; [1]", "value": 99, "unit": "%"}, {"measurement": "remaining activity at 10 µM", "setting": "SSTK/TSSK6; [2]", "value": 99.3, "unit": "%"}, {"measurement": "remaining activity at 10 µM", "setting": "SSTK/TSSK6; [3]", "value": 98.6, "unit": "%"}]}]}
